Measurements as given in patent publication US10363288B2, “Insulin mimotopes and methods of using the same” (THE REGENTS OF THE UNIVERSITY OF COLORADO, a body corporate, priority 2015, dated 2019).

How the values were obtained:
[1] = system: B:9-23 specific CD4 T cells; details: presented by IAg7; cited from earlier work
CD4+CFSElo cells = assay: T cell receptor V alpha gene sequencing of CD4+CFSElo cells after proliferation to peptide; type: cell-based, human; details: three HLA matched T1D subjects with two non-β57Asp DQ alleles; CD4+CFSElo cells vs baseline
Protocol: Three individuals had TCR α-chain sequencing performed on sorted CD4 T cells before peptide proliferation and then on CD4+CFSElo cells after one week of proliferation. Total RNA was directly extracted from sorted cells using the RNeasy Mini kit (Qiagen) for cells before proliferation and the PicoPure RNA isolation kit (Life Technologies) for those after proliferation. […] To amplify TCR-α and TCR-β chains, a two-step PCR was performed. PCR reactions were generated for α- and β-chains separately using the Universal Primer A Mix supplied from the SMARTer RACE cDNA Amplification Kit along with a primer designed on the constant region of α-[…] NO:22)) and β-chains […] NO:23)), respectively. The first PCR products were further amplified with nested primers ligated with the 454 adaptor sequences containing a multiple identifier sequence: forward primer for both α- and β-chains ([NT] NO:24)), reverse primer for α-chains […] NO:25)-multiple identifier sequence-[…] NO:26), and reverse primer for β-chains […] […] All sequences obtained from 454 sequencing were analyzed by the […]-QUEST algorithm (45) to identify Vgene, Jgene, and junction sequences, followed by additional analysis by in-house software to determine frequencies of Vgene usages by individual TCR sequences. Vgene frequencies determined by mean values from the 12 PCR reactions were analyzed for individual samples. […]

For “SHLVEALYLVCGEEG [B: 9-23 B22E, B:9-23 mimotope; B22 arginine to glutamic acid]”, the “stimulates B:9-23 specific CD4 T cells better than the wild type peptide” value [1] is given as “about 100 fold” and the “TCR V gene usage of alpha chains before and after proliferation” value (CD4+CFSElo cells) is given as “skewing with several V alpha genes and one V delta gene”.
